Measurements from EP1862466A2, “Arrays with cleavable linkers” (THE SCRIPPS RESEARCH INSTITUTE, priority 2004, dated 2006).

Experiments:
2G12 antibody = test: Carbohydrate microarray analysis, microtiter-based, Scatchard plot (Kd); type: binding, human; settings: microtiter plate array
Method: Carbohydrate microarray analysis. Ninety-six well NHS-coated microtiter plates (NoAb Biodiscoveries) were treated with 200 µL of a 1 mM methanolic solution of the amino-functionalized disulfide and alkyne containing linker (scheme V) containing 5 % diisopropylethylamine (DIEA) and incubated overnight at 4°C. The microtiter plate was then washed with 2 x 200 µL methanol and 2 x 200 µL water. Next, 200 µL solutions of azido-functionalized oligomannose derivatives 21-25 at varying concentrations from 0 to 500 µM in 5 % DIEA / methanol were introduced. A sprinkle of copper (I) iodide was added and the contents were allowed to react overnight at 4°C. The next day, the contents were removed and the plates were washed with 2 x 200 µL methanol and 2 x 200 µL water. The plates were then blocked with 0.1 % Tween20 solution in HEPES buffer pH 7.5 at 4 °C for 1 hour and then washed with 3 x 200 µL HEPES buffer. Next, 200 µL of a 1 µg/mL solution of 2G12 antibody in 0.1 % Tween20 / PBS buffer was added to the wells for a 1 hour incubation at 4 °C and then washed with 2 x 200 µL PBS buffer. At this point, 200 µL of FITC-tagged goat anti-human IgG antibody (10 µg/mL in PBS, Cal Biochem) was added for 1 hour at 4 °C, and the wells were then washed with 2 x 200 µL PBS buffer. Detection of the FITC-tagged secondary antibody was performed in 200 µL water using a fluorescence plate reader. The resulting data yielded the oligomannose-2G12 binding isotherms and Scatchard plot analysis was implemented in the determination of dissociation constants. Adams et al. (2004) Chem. Biol. 11: 875-81.
Overall, many of the oligomannose derivatives can compete for binding of Man9GlcNAc2, and, therefore, may serve as building blocks for potential immunogens to elicit 2G12-like antibodies. Carbohydrate Microarray Analysis. Previous studies by the inventors using covalent microtiter plates with a panel of carbohydrate epitopes for interaction with 2G12 involved converting the amine-containing oligomannoses 4, 5, 7, 8 and 9 to the corresponding azide derivatives 21, 22, 23, 24 and 25. These derivatives were then covalently attached to a microplate-immobilized cleavable linker via the Cu (I)-catalyzed 1,3-dipolar cycloaddition reaction (FIG. 11B). Kd values for the interaction of 2G12 with oligomannoses 4, 5, 7, 8, 9 (Table 9) were determined using a microtiter-based assay with detection via a fluorescent secondary antibody (see Bryan et al.(2004) J. Am. Chem. Soc. 126, 8640-41). Table 9: The Kd values of oligomannoses 1 and 4, 5, 7, 8, 9 binding to 2G12, as determined by carbohydrate microarray analysis.

[1] = test system: interaction between 2G12 and gp120; test: Solution phase ELISA: oligomannose inhibition of 2G12 binding to gp120; design: species or system HIV-1; settings: oligomannose at 0.5 mM
Method: Enzyme-linked immunosorbent assay. Microtiter plate wells (flat bottom, Costar type 3690; Corning Inc.) were coated with 50 ng/well gp120JR-CSF overnight at 4°C. All subsequent steps were performed at room temperature. The wells were then washed four times with PBS/0.05% (vol/vol) Tween20 (Sigma) using a microplate washer (SkanWash 400, Molecular Devices) prior to blocking for 1 hr with 3% (mass/vol) BSA. IgG 2G12, diluted to 0.5 µg/mL (25 ng/well) with 1% (mass/vol) BSA/0.02% (vol/vol) Tween20/PBS (PBS-BT), was then added for 2 hrs to the antigen-coated wells in the presence of serially-diluted oligomannoses starting at 2mM. Unbound antibody was removed by washing four times, as described above. Bound 2G12 was detected with an alkaline phosphatase-conjugated goat anti-human IgG F(ab')2 antibody (Pierce) diluted 1:1000 in PBS-BT. After 1hr, the wells were washed four times and bound antibody was visualized with p-nitrophenol phosphate substrate (Sigma) and monitored at 405 nm.
Binding. Man9GlcNAc2 1 and deprotected oligomannoses 2-6 and 7-9 (see FIG. 17) were evaluated for their ability to inhibit the interaction between 2G12 and gp120 in a solution phase enzyme-linked immunosorbent assay (ELISA). […]

[2] = test system: MBr1 anti-Globo H monoclonal antibody (IgM); test: Microarray analysis of Globo H derivatives with MBr1 antibody; type: binding, mouse; settings: sugars spotted on NHS-coated glass slide; FITC secondary antibody
Method: NHS-coated glass slides were spotted with methanolic solutions of sugars 201-204a with concentrations of 5, 10, 20, 30, 40, 50, 60, 80 and 100 µM from bottom to top with ten duplicates horizontally placed in each grid. This attachment procedure is illustrated in FIG. 12. The slide was washed with PBS buffer for one minute.
This solution was added below the printed grid of sugars and then spread through the application of a coverslip. Incubation in a glass humidifying chamber was performed with shaking for 1 hour. Following this, the slide was washed 5x with 0.05 % tween20 / PBS buffer, 5x with PBS buffer and 5x with water. Next, 200 µL of a 70 µg/mL solution of FITC-tagged goat anti-mouse antibody (Cal Biochem) was formed and added to the slide as before. […] A fluorescence scan was then performed on the slide. The resulting image was analyzed using the program Imagene to locate and quantify the fluorescence of all the spots within the grid.
Disulfide linker immobilization (of type 217): The BOC protected derivative of disulfide linker 215 (3.9 mg, 13.5 µmol) was dissolved in 1 mL of dichloromethane and 1 mL trifluoroacetic acid was added. […] These solutions were spotted on a solid surface and analyzed along side 201-204a. […]
Images such as the one shown in FIG. 13 could then be processed using the program Imagene to encircle and quantify the fluorescence of each spot. […]

chST6GalNAc-I = chST6GalNAc-I activity on small acceptor molecules (α-D-galacto derivatives); type: biochemical, chicken; settings: substance used as acceptor
From the text: The inventors have previously reported the cloning, expression, and characterization of chicken ST6GalNAc-I and its use in preparative synthesis of the O-linked sialoside antigens, STn-, α(2-6)SiaT-, α(2-3)SiaT- and Di-SiaT-antigen. Blixt, O.;Allin, K.;Pereira, L.;Datta, A. and Paulson, J. C., J. Am. Chem. Soc. 2002, 124, 5739-5746. Briefly, the recombinant enzyme was expressed in insect cells and purified by CDP-sepharose affinity chromatography to generate approximately 10 U/L of cell culture. The enzymatic activity was evaluated on a set of small acceptor molecules. […] Table 6. chST6GalNAc-I Activity of α-D-Galacto Derivatives

## NCCCCCO[C@H]1O[C@H](CO[C@H]2O[C@H](CO)[C@@H](O)[C@H](O)[C@@H]2O[C@H]2O[C@H](CO)[C@@H](O)[C@H](O)[C@@H]2O)[C@@H](O)[C@H](O[C@H]2O[C@H](CO)[C@@H](O)[C@H](O)[C@@H]2O[C@H]2O[C@H](CO)[C@@H](O)[C@H](O)[C@@H]2O)[C@@H]1O [Oligomannose 5]
2G12 antibody
  affinity for 2G12 antibodies (in words): greatest affinity
[1]
  inhibition (%) of 2G12 binding to gp120: 37.7%

## CC(=O)N[C@H]1[C@H](O[C@H]2[C@@H](O)[C@@H](CO)O[C@H](O[C@@H]3[C@H](O)[C@@H](O)[C@H](O[C@H]4[C@H](O)[C@@H](O)[C@H](OCCCCCN)O[C@@H]4CO)O[C@@H]3CO)[C@@H]2O)O[C@H](CO)[C@H](O)[C@@H]1O[C@@H]1O[C@H](CO)[C@H](O)[C@H](O)[C@H]1O[C@@H]1O[C@@H](C)[C@@H](O)[C@@H](O)[C@@H]1O [Compound 204a]
[2]
  binding of MBr1 antibody to immobilized sugar (in words): greatest affinity

## CC(=O)N[C@H]1C(O)O[C@H](CO)[C@H](O)[C@@H]1O (stereo partly drawn) [D-GalNAc]
chST6GalNAc-I
  chST6GalNAc-I Activity, cpm: 0 cpm
  chST6GalNAc-I Activity, nmol/mg x min^-1: 0.00 nmol/mg x min^-1

## C[C@@H]1O[C@@H](O[C@H]2[C@H](OCCCCCN)O[C@H](CO)[C@H](O)[C@@H]2O)[C@@H](O)[C@H](O)[C@@H]1O [Compound 201a]
[2]
  binding of MBr1 antibody to immobilized sugar (in words): no recruitment of antibody to the surface
